{
  "source": "patent US5817640A",
  "about": "(Gensia Pharmaceuticals, priority 1995, dated 1998)",
  "key": {"[1]": {"system": "patients undergoing coronary artery bypass graft (CABG) surgery", "experiment": "Incidence of clinical outcomes, Phase 3 CABG trial", "assay_type": "in vivo, human", "conditions": "for Life-threatening dysrhythmia, number of patients: placebo 4 of 212; for Incidence of cerebrovascular accident: placebo 4.2%; for Congestive heart failure, number of patients: placebo 8 of 212; for Cerebrovascular accident, number of patients: placebo 9 of 212; for Combined clinical outcomes, number of patients: placebo 29 of 212; for Incidence of cardiac death / Incidence of life-threatening dysrhythmia / Incidence of combined clinical outcomes: placebo […]"}, "[2]": {"experiment": "Uric acid monitoring, Phase 3 CABG trial", "assay_type": "in vivo, human", "conditions": "treated patients, data not shown", "description": "The uric acid concentrations of all patients in the study were monitored."}, "[3]": {"system": "patients undergoing coronary artery bypass graft (CABG) surgery", "experiment": "Incidence of MI and combined clinical outcome by plasma level of AICA riboside, Phase 3", "assay_type": "in vivo, human", "description": "The data in Table 13 reflect diagnosis of MI by both ECG and CK-MB (as described above with respect to Table 12)."}, "[4]": {"experiment": "Discoloration of liquid formulation during storage", "assay_type": "physicochemical"}, "[5]": {"conditions": "high dose 0.1 mg/kg/min, n=207, NS"}, "[6]": {"conditions": "high dose 0.1 mg/kg/min, n=207, p<0.05"}, "[7]": {"conditions": "AICA riboside plasma level <0.25 μg/ml, n=209"}, "[8]": {"conditions": "AICA riboside plasma level <0.25 μg/ml, n=211"}, "[9]": {"conditions": "plasma level 0.25-2.00 μg/ml, n=83"}, "[10]": {"conditions": "plasma level 0.25-2.00 μg/ml, n=89"}, "[11]": {"conditions": "plasma level 2.00-3.00 μg/ml, n=114"}, "[12]": {"conditions": "plasma level 2.00-3.00 μg/ml, n=116"}, "[13]": {"conditions": "plasma level 3.00-4.00 μg/ml, n=44"}, "[14]": {"conditions": "plasma level 4.00-5.00 μg/ml, n=61"}, "[15]": {"conditions": "plasma level 5.00-6.00 μg/ml, n=49"}, "[16]": {"conditions": "plasma level 5.00-6.00 μg/ml, n=50"}},
  "data": [
    {"smiles": "NC(=O)c1ncn([C@@H]2O[C@H](CO)[C@@H](O)[C@H]2O)c1N", "note": "[AICA riboside, 5-amino-1-β-D-ribofuranosyl-imidazole-4-carboxamide]", "values": [
      {"measurement": "Life-threatening dysrhythmia, number of patients", "setting": "[1]; [5]", "value": 3, "unit": "patients"},
      {"measurement": "Incidence of cerebrovascular accident", "setting": "[1]; [6]", "value": 0.5, "unit": "%"},
      {"measurement": "Congestive heart failure, number of patients", "setting": "[1]; [5]", "value": 6, "unit": "patients"},
      {"measurement": "Cerebrovascular accident, number of patients", "setting": "[1]; [6]", "value": 1, "unit": "patients"},
      {"measurement": "Combined clinical outcomes, number of patients", "setting": "[1]; [6]", "value": 11, "unit": "patients"},
      {"measurement": "Incidence of cardiac death", "setting": "[1]; [5]", "value": 0, "unit": "%"},
      {"measurement": "Incidence of life-threatening dysrhythmia", "setting": "[1]; [5]", "value": 1.4, "unit": "%"},
      {"measurement": "Incidence of combined clinical outcomes", "setting": "[1]; [6]", "value": 5.3, "unit": "%"},
      {"measurement": "Decrease in incidence of MI vs placebo", "setting": "[1]; high dose, p<0.05", "value": 68, "unit": "%"},
      {"measurement": "Decrease in incidence of cerebrovascular accident vs placebo", "setting": "[1]; high dose, p<0.05", "value": 88, "unit": "%"},
      {"measurement": "Reduction in incidence of combined outcomes vs placebo", "setting": "[1]; high dose, p<0.05", "value": 61, "unit": "%"},
      {"measurement": "Incidence of all deaths", "setting": "[1]; high dose, placebo 3.3%", "value": 0.5, "unit": "%"},
      {"measurement": "Incidence of myocardial infarction determined by either ECG or CK-MB", "setting": "[1]; high dose, placebo 24.1%", "value": 20.8, "unit": "%"},
      {"measurement": "Combined outcome efficacy of low dose", "setting": "[1]; low dose 0.05 mg/kg/min vs placebo", "value": "no statistically significant efficacy"},
      {"measurement": "Incidence of myocardial infarction (ECG and CK-MB)", "setting": "[1]; low dose 0.05 mg/kg/min, n=205, placebo 4.7%", "value": 4.4, "unit": "%"},
      {"measurement": "Myocardial infarction (ECG and CK-MB), number of patients", "setting": "[1]; low dose 0.05 mg/kg/min, n=205, placebo 10 of 211", "value": 9, "unit": "patients"},
      {"measurement": "Cardiac death, number of patients", "setting": "[1]; low dose 0.05 mg/kg/min, n=214, placebo 3 of 212", "value": 5, "unit": "patients"},
      {"measurement": "Incidence of congestive heart failure", "setting": "[1]; low dose 0.05 mg/kg/min, n=214, placebo 3.8%", "value": 2.8, "unit": "%"},
      {"measurement": "Life-threatening dysrhythmia, number of patients", "setting": "[1]; low dose 0.05 mg/kg/min, n=214", "value": 9, "unit": "patients"},
      {"measurement": "Incidence of cerebrovascular accident", "setting": "[1]; low dose 0.05 mg/kg/min, n=214", "value": 0.9, "unit": "%"},
      {"measurement": "Congestive heart failure, number of patients", "setting": "[1]; low dose 0.05 mg/kg/min, n=214", "value": 6, "unit": "patients"},
      {"measurement": "Cerebrovascular accident, number of patients", "setting": "[1]; low dose 0.05 mg/kg/min, n=214", "value": 2, "unit": "patients"},
      {"measurement": "Combined clinical outcomes, number of patients", "setting": "[1]; low dose 0.05 mg/kg/min, n=214", "value": 23, "unit": "patients"},
      {"measurement": "Incidence of cardiac death", "setting": "[1]; low dose 0.05 mg/kg/min, n=214", "value": 2.3, "unit": "%"},
      {"measurement": "Incidence of combined clinical outcomes", "setting": "[1]; low dose 0.05 mg/kg/min, n=214", "value": 10.7, "unit": "%"},
      {"measurement": "Incidence of life-threatening dysrhythmia", "setting": "[1]; low dose 0.05 mg/kg/min, n=214", "value": 4.2, "unit": "%"},
      {"measurement": "Crystalluria", "setting": "[2]", "value": "no clinically significant crystalluria"},
      {"measurement": "Plasma uric acid concentrations vs normal range", "setting": "[2]", "value": "generally remained in, or close to, the normal range"},
      {"measurement": "Uric acid concentrations, dose relation", "setting": "[2]", "value": "clear dose related increase in uric acid concentrations"},
      {"measurement": "Incidence of myocardial infarction", "setting": "[3]; [7]", "value": 4.3, "unit": "%"},
      {"measurement": "Myocardial infarction, number of patients", "setting": "[3]; [7]", "value": 9, "unit": "patients"},
      {"measurement": "Combined clinical outcome, number of patients", "setting": "[3]; [8]", "value": 29, "unit": "patients"},
      {"measurement": "Incidence of combined clinical outcome", "setting": "[3]; [8]", "value": 13.7, "unit": "%"},
      {"measurement": "Most effective plasma level of AICA riboside", "setting": "[3]; from Table 13", "value": "3 to 6", "unit": "µg/mL"},
      {"measurement": "Incidence of myocardial infarction", "setting": "[3]; [9]", "value": 2.4, "unit": "%"},
      {"measurement": "Myocardial infarction, number of patients", "setting": "[3]; [9]", "value": 2, "unit": "patients"},
      {"measurement": "Combined clinical outcome, number of patients", "setting": "[3]; [10]", "value": 9, "unit": "patients"},
      {"measurement": "Incidence of combined clinical outcome", "setting": "[3]; [10]", "value": 10.1, "unit": "%"},
      {"measurement": "Incidence of myocardial infarction", "setting": "[3]; [11]", "value": 4.4, "unit": "%"},
      {"measurement": "Myocardial infarction, number of patients", "setting": "[3]; [11]", "value": 5, "unit": "patients"},
      {"measurement": "Combined clinical outcome, number of patients", "setting": "[3]; [12]", "value": 11, "unit": "patients"},
      {"measurement": "Incidence of combined clinical outcome", "setting": "[3]; [12]", "value": 9.5, "unit": "%"},
      {"measurement": "Combined clinical outcome, number of patients", "setting": "[3]; [13]", "value": 3, "unit": "patients"},
      {"measurement": "Incidence of combined clinical outcome", "setting": "[3]; [13]", "value": 6.8, "unit": "%"},
      {"measurement": "Incidence of myocardial infarction", "setting": "[3]; [13]", "value": 2.3, "unit": "%"},
      {"measurement": "Myocardial infarction, number of patients", "setting": "[3]; [13]", "value": 1, "unit": "patients"},
      {"measurement": "Combined clinical outcome, number of patients", "setting": "[3]; [14]", "value": 2, "unit": "patients"},
      {"measurement": "Incidence of combined clinical outcome", "setting": "[3]; [14]", "value": 3.3, "unit": "%"},
      {"measurement": "Myocardial infarction, number of patients", "setting": "[3]; [14]", "value": 0, "unit": "patients"},
      {"measurement": "Incidence of myocardial infarction", "setting": "[3]; [15]", "value": 4.1, "unit": "%"},
      {"measurement": "Myocardial infarction, number of patients", "setting": "[3]; [15]", "value": 2, "unit": "patients"},
      {"measurement": "Combined clinical outcome, number of patients", "setting": "[3]; [16]", "value": 3, "unit": "patients"},
      {"measurement": "Incidence of combined clinical outcome", "setting": "[3]; [16]", "value": 6.0, "unit": "%"},
      {"measurement": "Incidence of myocardial infarction", "setting": "[3]; plasma level >6.00 μg/ml, n=44", "value": 2.3, "unit": "%"},
      {"measurement": "Myocardial infarction, number of patients", "setting": "[3]; plasma level >6.00 μg/ml, n=44", "value": 1, "unit": "patients"},
      {"measurement": "Combined clinical outcome, number of patients", "setting": "[3]; plasma level >6.00 μg/ml, n=46", "value": 4, "unit": "patients"},
      {"measurement": "Incidence of combined clinical outcome", "setting": "[3]; plasma level >6.00 μg/ml, n=46", "value": 8.7, "unit": "%"},
      {"measurement": "Stability of liquid formulation", "setting": "[4]", "value": "variable discoloration"}
    ]}
  ]
}
